The test system of one series is recombinant NL4-3 virus. The series can be described thus: HIV cell culture assay (antiviral activity, luciferase readout in MT-2 cells). The class given is cell-based. As to conditions: Human immunodeficiency virus 1, NL43, MT2. The method, then:
HIV cell culture assay—MT-2 cells, 293T cells and the proviral DNA clone of NL4-3 virus were obtained from the […] AIDS Research and Reference Reagent Program. MT-2 cells were propagated in RPMI 1640 media supplemented with 10% heat inactivated fetal bovine serum (FBS), […] penicillin G and up to 100 units/mL streptomycin. The 293T cells were propagated in DMEM media supplemented with 10% heat inactivated FBS, […] penicillin G and […] streptomycin. A recombinant NL4-3 proviral clone, in which a section of the nef gene was replaced with the Renilla luciferase gene, was used to make the reference virus used in these studies. The recombinant virus was prepared through transfection of the recombinant NL4-3 proviral clone into 293T cells using Transit-293 Transfection Reagent from Mirus Bio LLC (Madison, Wis.). Supernatent was harvested after 2-3 days and the amount of virus present was titered in MT-2 cells using luciferase enzyme activity as a marker by measuring luciferase enzyme activity. Luciferase was quantitated using the EnduRen Live Cell Substrate from Promega (Madison, Wis.). Antiviral activities of compounds toward the recombinant virus were quantified by measuring luciferase activity in MT-2 cells infected for 4-5 days with the recombinant virus in the presence of serial dilutions of the compound.
The 50% effective concentration (EC50) was calculated by using the exponential form of the median effect equation where (Fa)=1/[1+(ED50/drug conc.)m] (Johnson V A, Byington R T. Infectivity Assay. In Techniques in HIV Research. ed. Aldovini A, Walker B D. 71-76. New York: Stockton Press. 1990). The 50% inhibitory concentration (EC50) was calculated by using the exponential form of the median effect equation where percent inhibition=1/[1+(EC50/drug concentration)m], where m is a parameter that reflects the slope of the concentration-response curve.

The nature of series [1]: Compound cytotoxicity, XTT-based colorimetric assay. The class given is cell-based. The conditions noted are these: human; uninfected MT2 cells, day 4, XTT; read-out: CC50. The method, then:
Compound cytotoxicity and the corresponding CC50 values were determined using the same protocol as described in the antiviral assay except that uninfected cells were used. Cytotoxicity was assessed on day 4 in uninfected MT2 cells by using a XTT (2,3-bis[2-Methoxy-4-nitro-5-sulfophenyl]-2H-tetrazolium-5-carboxyanilide inner salt)-based colorimetric assay (Sigma-Aldrich, St Louis, Mo.).
A general note: Tetrazolium assays rely on reduction of a dye to a coloured formazan, in cell work by metabolically active cells.

In general, EC50 refers to the concentration needed to bring the measured effect to its halfway point. One may read the CC50 as the concentration that lowers cell viability or growth by half. With `Cn1nc(NS(C)(=O)=O)c2c(Cl)ccc(-n3c([C@H](Cc4cc(F)cc(F)c4)NC(=O)Cn4nc(C(F)F)c5c4C(F)(F)[C@@H]4C[C@H]54)nc4cc(N5CCC(C)(C)CC5)ccc4c3=O)c21` (atropisomer, axis not shown; (P)) [Example 1, N—((S)-1-((3P)-3-(4-chloro-1-methyl-3-(methylsulfonamido)-1H-indazol-7-yl)-7-(4,4-dimethylpiperidin-1-yl)-4-oxo-3,4-dihydroquinazolin-2-yl)-2-(3,5-difluorophenyl)ethyl)-2-((3bS,4aR)-3-(difluoromethyl)-5,5-difluoro-3b,4,4a,5-tetrahydro-1H-cyclopropa[3,4]cyclopenta[1,2-c]pyrazol-1-yl)acetamide], in the series with recombinant NL4-3 virus, the EC50 worked out at 0.796 nM. Also, the CC50 at 4 days in series [1] was greater than 500 nM.
On to `Cn1nc(NS(C)(=O)=O)c2c(Cl)ccc(-n3c([C@H](Cc4cc(F)cc(F)c4)NC(=O)Cn4nc(C(F)F)c5c4C(F)(F)[C@@H]4C[C@H]54)nc4cc(N5CCCCCC5)ccc4c3=O)c21` (atropisomer, axis not shown; (P)) [Example 2, N—((S)-1-(7-(azepan-1-yl)-(3P)-3-(4-chloro-1-methyl-3-(methylsulfonamido)-1H-indazol-7-yl)-4-oxo-3,4-dihydroquinazolin-2-yl)-2-(3,5-difluorophenyl)ethyl)-2-((3bS,4aR)-3-(difluoromethyl)-5,5-difluoro-3b,4,4a,5-tetrahydro-1H-cyclopropa[3,4]cyclopenta[1,2-c]pyrazol-1-yl)acetamide], for which the EC50 in the series on recombinant NL4-3 virus turned out to be 0.243 nM. Further, in series [1], the CC50 at 4 days was greater than 500 nM.
Take `COC[C@@H]1CCCN1c1ccc2c(=O)n(-c3ccc(Cl)c4c(NS(C)(=O)=O)nn(C)c34)c([C@H](Cc3cc(F)cc(F)c3)NC(=O)Cn3nc(C(F)F)c4c3C(F)(F)[C@@H]3C[C@H]43)nc2c1` (atropisomer, axis not shown; (P)) [Example 3, N—((S)-1-((3P)-3-(4-chloro-1-methyl-3-(methylsulfonamido)-1H-indazol-7-yl)-7-((S)-2-(methoxymethyl)pyrrolidin-1-yl)-4-oxo-3,4-dihydroquinazolin-2-yl)-2-(3,5-difluorophenyl)ethyl)-2-((3bS,4aR)-3-(difluoromethyl)-5,5-difluoro-3b,4,4a,5-tetrahydro-1H-cyclopropa[3,4]cyclopenta[1,2-c]pyrazol-1-yl)acetamide]: the EC50 in the series with recombinant NL4-3 virus was 0.175 nM. The CC50 at 4 days in series [1] is greater than 500 nM.
Regarding `Cn1nc(NS(C)(=O)=O)c2c(Cl)ccc(-n3c([C@H](Cc4cc(F)cc(F)c4)NC(=O)Cn4nc(C(F)F)c5c4C(F)(F)[C@@H]4C[C@H]54)nc4cc(N5CCOC(C)(C)C5)ccc4c3=O)c21` (atropisomer, axis not shown; (P)) [Example 4, N—((S)-1-((3P)-3-(4-chloro-1-methyl-3-(methylsulfonamido)-1H-indazol-7-yl)-7-(2,2-dimethylmorpholino)-4-oxo-3,4-dihydroquinazolin-2-yl)-2-(3,5-difluorophenyl)ethyl)-2-((3bS,4aR)-3-(difluoromethyl)-5,5-difluoro-3b,4,4a,5-tetrahydro-1H-cyclopropa[3,4]cyclopenta[1,2-c]pyrazol-1-yl)acetamide], the EC50 in the series with recombinant NL4-3 virus came out at 0.063 nM. Also, the CC50 at 4 days in series [1] is greater than 500 nM.
The like results for `CO[C@@H]1CCN(c2ccc3c(=O)n(-c4ccc(Cl)c5c(NS(C)(=O)=O)nn(C)c45)c([C@H](Cc4cc(F)cc(F)c4)NC(=O)Cn4nc(C(F)F)c5c4C(F)(F)[C@@H]4C[C@H]54)nc3c2)C1` (atropisomer, axis not shown; (P)) [Example 5, N—((S)-1-((3P)-3-(4-chloro-1-methyl-3-(methylsulfonamido)-1H-indazol-7-yl)-7-((R)-3-methoxypyrrolidin-1-yl)-4-oxo-3,4-dihydroquinazolin-2-yl)-2-(3,5-difluorophenyl)ethyl)-2-((3bS,4aR)-3-(difluoromethyl)-5,5-difluoro-3b,4,4a,5-tetrahydro-1H-cyclopropa[3,4]cyclopenta[1,2-c]pyrazol-1-yl)acetamide] were, in that order, 0.05 nM and greater than 500 nM.
On to `CS(=O)(=O)Nc1nn(CC(F)F)c2c(-n3c([C@H](Cc4cc(F)cc(F)c4)NC(=O)Cn4nc(C(F)F)c5c4C(F)(F)[C@@H]4C[C@H]54)nc4cc(N5CCOCC5)ccc4c3=O)ccc(Cl)c12` (atropisomer, axis not shown; (P)) [Example 7, N—((S)-1-((3P)-3-(4-chloro-1-(2,2-difluoroethyl)-3-(methylsulfonamido)-1H-indazol-7-yl)-7-morpholino-4-oxo-3,4-dihydroquinazolin-2-yl)-2-(3,5-difluorophenyl)ethyl)-2-((3bS,4aR)-3-(difluoromethyl)-5,5-difluoro-3b,4,4a,5-tetrahydro-1H-cyclopropa[3,4]cyclopenta[1,2-c]pyrazol-1-yl)acetamide], for which the EC50 with recombinant NL4-3 virus came to 0.085 nM. For the same compound, the CC50 at 4 days in series [1] is greater than 500 nM.
In the case of `O=C(Cn1nc(C(F)F)c2c1C(F)(F)[C@@H]1C[C@H]21)N[C@@H](Cc1cc(F)cc(F)c1)c1nc2cc(N3CCOCC3)ccc2c(=O)n1-c1ccc(Cl)c2c(NS(=O)(=O)C3CC3)nn(CC(F)F)c12` (atropisomer, axis not shown; (P)) [Example 9, N—((S)-1-((3P)-3-(4-chloro-3-(cyclopropanesulfonamido)-1-(2,2-difluoroethyl)-1H-indazol-7-yl)-7-morpholino-4-oxo-3,4-dihydroquinazolin-2-yl)-2-(3,5-difluorophenyl)ethyl)-2-((3bS,4aR)-3-(difluoromethyl)-5,5-difluoro-3b,4,4a,5-tetrahydro-1H-cyclopropa[3,4]cyclopenta[1,2-c]pyrazol-1-yl)acetamide], the EC50 in the series with recombinant NL4-3 virus was found to be 0.086 nM. Moreover, the CC50 at 4 days in series [1] was greater than 500 nM.
Take `C[C@@H]1CN(c2ccc3c(=O)n(-c4ccc(Cl)c5c(NS(=O)(=O)C6CC6)nn(CC(F)F)c45)c([C@H](Cc4cc(F)cc(F)c4)NC(=O)Cn4nc(C(F)F)c5c4C(F)(F)[C@@H]4C[C@H]54)nc3c2)C[C@H](C)O1` (atropisomer, axis not shown; (P)) [Example 10, N—((S)-1-((3P)-3-(4-chloro-3-(cyclopropanesulfonamido)-1-(2,2-difluoroethyl)-1H-indazol-7-yl)-7-((2S,6R)-2,6-dimethylmorpholino)-4-oxo-3,4-dihydroquinazolin-2-yl)-2-(3,5-difluorophenyl)ethyl)-2-((3bS,4aR)-3-(difluoromethyl)-5,5-difluoro-3b,4,4a,5-tetrahydro-1H-cyclopropa[3,4]cyclopenta[1,2-c]pyrazol-1-yl)acetamide]: the EC50 in the series on recombinant NL4-3 virus was determined as 0.072 nM. The CC50 at 4 days in series [1] is greater than 500 nM.
`CN1CCN(c2ccc3c(=O)n(-c4ccc(Cl)c5c(NS(C)(=O)=O)nn(C)c45)c([C@H](Cc4cc(F)cc(F)c4)NC(=O)Cn4nc(C(F)F)c5c4C(F)(F)[C@@H]4C[C@H]54)nc3c2)CC1` (atropisomer, axis not shown; (P)) [Example 11, N—((S)-1-((3P)-3-(4-chloro-1-methyl-3-(methylsulfonamido)-1H-indazol-7-yl)-7-(4-methylpiperazin-1-yl)-4-oxo-3,4-dihydroquinazolin-2-yl)-2-(3,5-difluorophenyl)ethyl)-2-((3bS,4aR)-3-(difluoromethyl)-5,5-difluoro-3b,4,4a,5-tetrahydro-1H-cyclopropa[3,4]cyclopenta[1,2-c]pyrazol-1-yl)acetamide]: the EC50 in the series on recombinant NL4-3 virus was found to be 0.117 nM. Also, in series [1], the CC50 at 4 days is greater than 10000 nM.
`Cn1nc(NS(C)(=O)=O)c2c(Cl)ccc(-n3c([C@H](Cc4cc(F)cc(F)c4)NC(=O)Cn4nc(C(F)F)c5c4C(F)(F)[C@@H]4C[C@H]54)nc4cc(N5CCOCC5)ccc4c3=O)c21` (atropisomer, axis not shown; (P)) [Example 12, N—((S)-1-((3P)-3-(4-chloro-1-methyl-3-(methylsulfonamido)-1H-indazol-7-yl)-7-morpholino-4-oxo-3,4-dihydroquinazolin-2-yl)-2-(3,5-difluorophenyl)ethyl)-2-((3bS,4aR)-3-(difluoromethyl)-5,5-difluoro-3b,4,4a,5-tetrahydro-1H-cyclopropa[3,4]cyclopenta[1,2-c]pyrazol-1-yl)acetamide]: in the series on recombinant NL4-3 virus, the EC50 worked out at 0.035 nM. Moreover, the CC50 at 4 days in series [1] is greater than 1000 nM.

The values are drawn from patent US20210395262A1, “INHIBITORS OF HUMAN IMMUNODEFICIENCY VIRUS REPLICATION” (ViiV HEALTHCARE UK (NO.5) LIMITED, priority 2018, published 2021).
